Test results from PubChem BioAssay AID330 (DTP/NCI, 2004).
Values joined by “and” are separate entries in the source; they are usually repeats but may differ in a detail not shown here. Identical values can stand only once. Inconclusive results and toxic doses are left out.

Test system: P388 leukemia ip, CD2F1 mice, survival T/C
Experiment: NCI In Vivo Anticancer Drug Screen. Data for tumor model P388 Leukemia (intraperitoneal) in CD2F1 (CDF1) mice
Details: endpoint: median survival time, higher = longer survival
Method in brief: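 Mice carrying the transplanted tumor received test compound or vehicle. Survival was recorded in each group, and the value is the treated-group measurement divided by that of the vehicle-treated control group.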

[1] = dose: 50.0 mg/kg/injection, schedule: Q01DX009 (ip), vehicle: saline with Tween-80
[2] = dose: 100.0 mg/kg/injection, schedule: Q01DX009 (ip), vehicle: saline with Tween-80
[3] = dose: 200.0 mg/kg/injection, schedule: Q01DX009 (ip), vehicle: saline with Tween-80
[4] = dose: 25.0 mg/kg/injection, schedule: Q01DX009 (ip), vehicle: saline
[5] = dose: 50.0 mg/kg/injection, schedule: Q01DX009 (ip), vehicle: saline
[6] = dose: 200.0 mg/kg/injection, schedule: Q01DX009 (ip), vehicle: saline
[7] = dose: 100.0 mg/kg/injection, schedule: Q01DX009 (ip), vehicle: saline
[8] = dose: 50.0 mg/kg/injection, schedule: Q01DX005 (ip), vehicle: saline with Tween-80
[9] = dose: 100.0 mg/kg/injection, schedule: Q01DX005 (ip), vehicle: saline with Tween-80

In the case of `CC(=O)c1nc(-c2ccccc2)oc1-c1ccccc1`, the T/C (dose: 100.0 mg/kg/injection, schedule: Q04DX002 (ip), vehicle: saline) is reported as 96 % of control, the T/C (dose: 200.0 mg/kg/injection, schedule: Q04DX002 (ip), vehicle: saline) is reported as 95 % of control and the T/C (dose: 400.0 mg/kg/injection, schedule: Q04DX002 (ip), vehicle: saline) is reported as 99 % of control.

For `COc1ccc(-c2nnc(-c3ccc(Cl)cc3)c(=O)[nH]2)cc1`, the T/C (dose: 6.25 mg/kg/injection, schedule: Q01DX005 (ip), vehicle: saline with Tween-80) was 91 % of control and the T/C (dose: 12.5 mg/kg/injection, schedule: Q01DX005 (ip), vehicle: saline with Tween-80) was 90 % of control.

In the case of `C=C(C)c1nc(N)nc(NCCCC)n1`, the T/C (dose: 100.0 mg/kg/injection, schedule: Q04DX003 (ip), vehicle: Klucel (hydroxypropylcellulose) (HPC)) is reported as 104 % of control, the T/C (dose: 200.0 mg/kg/injection, schedule: Q04DX003 (ip), vehicle: Klucel (hydroxypropylcellulose) (HPC)) is reported as 100 % of control and the T/C (dose: 400.0 mg/kg/injection, schedule: Q04DX003 (ip), vehicle: Klucel (hydroxypropylcellulose) (HPC)) is reported as 96 % of control.

`CCOC(=O)C(C)OC1CCCCO1` (stereo not given) was tested, and the T/C (dose: 50.0 mg/kg/injection, schedule: Q01DX009 (ip), vehicle: other) was 105 % of control, the T/C (dose: 100.0 mg/kg/injection, schedule: Q01DX009 (ip), vehicle: other) was 95 % of control and the T/C (dose: 200.0 mg/kg/injection, schedule: Q01DX009 (ip), vehicle: other) was 96 % of control.

`Brc1cnn(Cn2cc(Br)cn2)c1` was tested, and the T/C (dose: 60.0 mg/kg/injection, schedule: Q01DX005 (ip), vehicle: Klucel (hydroxypropylcellulose) (HPC)) was 102 % of control, the T/C (dose: 120.0 mg/kg/injection, schedule: Q01DX005 (ip), vehicle: Klucel (hydroxypropylcellulose) (HPC)) was 102 % of control and the T/C (dose: 240.0 mg/kg/injection, schedule: Q01DX005 (ip), vehicle: Klucel (hydroxypropylcellulose) (HPC)) was 99 % of control.

For `CN(C)c1cc2c(nn1)Nc1ccccc1S2`, the T/C [1] was 96 % of control, the T/C [2] was 96 % of control and the T/C [3] was 90 % of control.

For `COc1cc(=O)cc2n(-c3cc(OC)c(O)c(OC)c3)c3ccccc3nc1-2`, the T/C (dose: 12.5 mg/kg/injection, schedule: Q01DX009 (ip), vehicle: saline) was 100 % of control, the T/C [4] was 104 % of control and the T/C [5] was 102 % of control and 88 % of control. The T/C [6] was 98 % of control.

With `Cc1ccc(N=Nc2c(O)n(-c3ccc(C)cc3)c(=S)n(-c3ccc(Br)cc3)c2=O)cc1` the T/C (dose: 100.0 mg/kg/injection, schedule: Q04DX002 (ip), vehicle: saline with Tween-80) was 99 % of control, the T/C (dose: 200.0 mg/kg/injection, schedule: Q04DX002 (ip), vehicle: saline with Tween-80) was 102 % of control and the T/C (dose: 400.0 mg/kg/injection, schedule: Q04DX002 (ip), vehicle: saline with Tween-80) was 105 % of control.

`CCc1c2cc(OC)c(OC)cc2cc2c3cc(OC)c(OC)cc3cc[n+]12` (tested in a mixture with another compound) was tested, and the T/C (dose: 8.8 mg/kg/injection, schedule: Q04DX003 (ip), vehicle: saline) was 108 % of control, the T/C (dose: 20.0 mg/kg/injection, schedule: Q04DX003 (ip), vehicle: saline) was 122 % of control and the T/C [4] was 151 % of control. For the same compound, the T/C (dose: 29.3 mg/kg/injection, schedule: Q01DX009 (ip), vehicle: saline with Tween-80) was 153 % of control, the T/C (dose: 37.5 mg/kg/injection, schedule: Q01DX009 (ip), vehicle: saline with Tween-80) was 167 % of control and the T/C (dose: 44.0 mg/kg/injection, schedule: Q01DX009 (ip), vehicle: saline with Tween-80) was 170 % of control. For the same compound, the T/C [5] was 178 % of control, the T/C (dose: 66.0 mg/kg/injection, schedule: Q01DX009 (ip), vehicle: saline with Tween-80) was 201 % of control and the T/C (dose: 75.0 mg/kg/injection, schedule: Q01DX009 (ip), vehicle: saline with Tween-80) was 208 % of control. For the same compound, the T/C (dose: 88.0 mg/kg/injection, schedule: Q04DX003 (ip), vehicle: saline) was 150 % of control, the T/C (dose: 100.0 mg/kg/injection, schedule: Q04DX003 (ip), vehicle: saline with Tween-80) was 154 % of control and the T/C (dose: 150.0 mg/kg/injection, schedule: Q01DX009 (ip), vehicle: saline with Tween-80) was 234 % of control. The T/C (dose: 150.0 mg/kg/injection, schedule: Q01DX009 (ip), vehicle: saline) was 244 % of control and 92 % of control, the T/C [6] was 171 % of control and the T/C (dose: 200.0 mg/kg/injection, schedule: Q04DX003 (ip), vehicle: saline with Tween-80) was 181 % of control. The T/C (dose: 200.0 mg/kg/injection, schedule: Q04DX003 (ip), vehicle: saline) was 150 % of control and 191 % of control, the T/C (dose: 225.0 mg/kg/injection, schedule: Q01DX009 (ip), vehicle: saline) was 218 % of control and the T/C (dose: 300.0 mg/kg/injection, schedule: Q04DX003 (ip), vehicle: saline) was 195 % of control. For the same compound, the T/C (dose: 400.0 mg/kg/injection, schedule: Q04DX003 (ip), vehicle: saline with Tween-80) was 90 % of control and the T/C (dose: 400.0 mg/kg/injection, schedule: Q04DX003 (ip), vehicle: saline) was 104 % of control.

For `CC1=NN(c2cc(Cl)c(S(=O)(=O)O)cc2Cl)C(=O)C1N=Nc1ccc(S(=O)(=O)O)cc1` (stereo not given), the T/C [5] was 103 % of control, the T/C [7] was 100 % of control and the T/C [6] was 99 % of control.

With `Brc1ccc(COC2C[C@]34CC=CC[C@@]3(C2)O4)cc1` (stereo not given in full) the T/C (dose: 50.0 mg/kg/injection, schedule: Q01DX005 (ip), vehicle: Klucel (hydroxypropylcellulose) (HPC)) was 105 % of control, the T/C (dose: 100.0 mg/kg/injection, schedule: Q01DX005 (ip), vehicle: Klucel (hydroxypropylcellulose) (HPC)) was 103 % of control and the T/C (dose: 200.0 mg/kg/injection, schedule: Q01DX005 (ip), vehicle: Klucel (hydroxypropylcellulose) (HPC)) was 105 % of control.

`Cc1ccc(NC(=O)Oc2ccc(F)cc2Cl)c([N+](=O)[O-])c1` was tested, and the T/C [1] was 112 % of control and the T/C [2] was 118 % of control.

In the case of `CC1CC(C)(C)N=C(Cc2ccccc2)O1` (stereo not given), the T/C [1] is reported as 100 % of control, the T/C [2] is reported as 101 % of control and the T/C [3] is reported as 89 % of control.

For `COC(=O)C1(CC(=O)c2ccc(C)cc2)NC(=S)NC(=O)C1C#N` (stereo not given), the T/C (dose: 60.0 mg/kg/injection, schedule: Q01DX005 (ip), vehicle: saline) was 100 % of control, the T/C (dose: 120.0 mg/kg/injection, schedule: Q01DX005 (ip), vehicle: saline) was 104 % of control and the T/C (dose: 240.0 mg/kg/injection, schedule: Q01DX005 (ip), vehicle: saline) was 100 % of control.

With `CCCCCNS(=O)(=O)c1ccc(C)cc1` the T/C (dose: 50.0 mg/kg/injection, schedule: Q01DX009 (ip), vehicle: saline + alcohol) was 107 % of control, the T/C (dose: 100.0 mg/kg/injection, schedule: Q01DX009 (ip), vehicle: saline + alcohol) was 107 % of control and the T/C (dose: 200.0 mg/kg/injection, schedule: Q01DX009 (ip), vehicle: saline + alcohol) was 118 % of control. The T/C (dose: 400.0 mg/kg/injection, schedule: Q01DX009 (ip), vehicle: saline + alcohol) was 101 % of control.

`COC1/C=C\OC2(C)Oc3c(C)c(O)c4c(O)c(c5c(c4c3C2=O)NC2(CCN(Cc3ccccc3)CC2)N=5)=NC(=O)/C(C)=C\C=C\C(C)C(O)C(C)C(O)C(C)C(OC(C)=O)C1C` (stereo not given) was tested, and the T/C (dose: 25.0 mg/kg/injection, schedule: Q01DX009 (ip), vehicle: Klucel (hydroxypropylcellulose) (HPC)) was 102 % of control, the T/C (dose: 50.0 mg/kg/injection, schedule: Q01DX009 (ip), vehicle: Klucel (hydroxypropylcellulose) (HPC)) was 107 % of control and the T/C (dose: 100.0 mg/kg/injection, schedule: Q01DX009 (ip), vehicle: Klucel (hydroxypropylcellulose) (HPC)) was 111 % of control. For the same compound, the T/C (dose: 200.0 mg/kg/injection, schedule: Q01DX009 (ip), vehicle: Klucel (hydroxypropylcellulose) (HPC)) was 103 % of control.

In the case of `CSC(=O)Nc1ccc(C)c(NC(=O)SC)c1`, the T/C [8] is reported as 94 % of control, the T/C [9] is reported as 100 % of control and the T/C (dose: 200.0 mg/kg/injection, schedule: Q01DX005 (ip), vehicle: saline with Tween-80) is reported as 100 % of control.

In the case of `CC(=O)CCC1C(=O)N(C)C(=O)c2ccccc21` (stereo not given), the T/C (dose: 60.0 mg/kg/injection, schedule: Q01DX005 (ip), vehicle: saline with Tween-80) is reported as 98 % of control, the T/C (dose: 120.0 mg/kg/injection, schedule: Q01DX005 (ip), vehicle: saline with Tween-80) is reported as 99 % of control and the T/C (dose: 240.0 mg/kg/injection, schedule: Q01DX005 (ip), vehicle: saline with Tween-80) is reported as 91 % of control.

`CCN(CC)CCCC(C)NCC(O)c1cc(-c2ccc(Cl)cc2)nc2ccccc12` (stereo not given) was tested, and the T/C [8] was 107 % of control and the T/C [9] was 112 % of control.

`CCOC(=O)c1[nH]cnc1/N=N/c1nc(O)c(C#N)[nH]1` was tested, and the T/C (dose: 60.0 mg/kg/injection, schedule: Q01DX005 (ip), vehicle: suspension in saline) was 97 % of control, the T/C (dose: 120.0 mg/kg/injection, schedule: Q01DX005 (ip), vehicle: suspension in saline) was 100 % of control and the T/C (dose: 240.0 mg/kg/injection, schedule: Q01DX005 (ip), vehicle: suspension in saline) was 100 % of control.

With `COc1ccc(/C(C#N)=C\c2ccco2)cc1` the T/C [5] was 111 % of control, the T/C [7] was 110 % of control and the T/C [6] was 101 % of control.
